Patent publication US10689377B2 (Mirati Therapeutics, Inc., priority 2017, dated 2020)

Biological target: KRas G12C (Homo sapiens, UniProt P01116, G12C)
Test: Cellular inhibition of KRas G12C measured by Phospho-ERK in NCI-H358 cells
Assay type: cell-based
Details: pERK(Thr202/Tyr204) normalized with GAPDH, NCI-H358 cells, 3 hours; read-out: IC50
Outline: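 Ratio of phospho-ERK(Thr202/Tyr204) to GAPDH, read by near-infrared secondary antibodies on fixed, permeabilised NCI-H358 cells, expressed relative to DMSO control. Compound exposure was 3 h at 0.5% DMSO. IC50 values come from 4-parameter curve fits.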

KRas G12C, sequence (P01116 1-188 isoform P01116-2 G12C): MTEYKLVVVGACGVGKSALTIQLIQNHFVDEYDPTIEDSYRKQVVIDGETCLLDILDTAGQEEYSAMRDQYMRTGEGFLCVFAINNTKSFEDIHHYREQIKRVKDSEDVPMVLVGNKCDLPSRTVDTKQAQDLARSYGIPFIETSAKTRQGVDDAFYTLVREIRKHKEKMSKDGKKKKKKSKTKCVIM

Row | IC50 [nM] | SMILES
1 | 0.1 to 1000 | C=CC(=O)N1CCN(c2nc(OC[C@@H]3CCCN3C)nc3c2CCN(c2cccc(F)c2C(F)(F)F)C3)CC1CC#N (some centres unmarked) [Example 230]
2 | > 1000 | C=CC(=O)N1CCN(c2nc(OCCCN3CCOCC3)nc3c2CCN(c2cc(O)cc(Cl)c2F)C3)CC1 [Example 232, 1-(4-(7-(3-chloro-2-fluoro-5-hydroxyphenyl)-2-(3-morpholinopropoxy)-5,6,7,8-tetrahydropyrido[3,4-d]pyrimidin-4-yl)piperazin-1-yl)prop-2-en-1-one]
3 | 0.1 to 1000 | C=CC(=O)N1CCN(c2nc(OC[C@@H]3CCCN3CC)nc3c2CCN(c2cccc4ccccc24)C3)CC1CC#N (stereo partly drawn) [Example 233, 2-(1-acryloyl-4-(2-(((S)-1-ethylpyrrolidin-2-yl)methoxy)-7-(naphthalen-1-yl)-5,6,7,8-tetrahydropyrido[3,4-d]pyrimidin-4-yl)piperazin-2-yl)acetonitrile]
4 | 0.1 to 1000 | C=CC(=O)N1CCN(c2nc(OC[C@@H]3CCCN3C)nc3c2CCN(c2ccccc2C(F)(F)F)C3)C[C@@H]1CC#N [Example 237, 2-((S)-1-acryloyl-4-(2-(((S)-1-methylpyrrolidin-2-yl)methoxy)-7-(2-(trifluoromethyl)phenyl)-5,6,7,8-tetrahydropyrido [3,4-d]pyrimidin-4-yl)piperazin-2-yl)acetonitrile 2,2,2-trifluoroacetate]
5 | 0.1 to 1000 | C=CC(=O)N1CCN(c2nc(OC[C@@H]3CCCN3C)nc3c2CCN(c2c(C)ccc4cn[nH]c24)C3)CC1CC#N (some centres unmarked) [Example 238]
6 | > 1000 | C=CC(=O)N1CCN(c2nc(OC[C@@H]3CCCN3C)nc3c2CCN(c2ccncc2C(F)(F)F)C3)CC1CC#N (stereo partly drawn) [Example 239, 2-(1-acryloyl-4-(2-(((S)-1-methylpyrrolidin-2-yl)methoxy)-7-(3-(trifluoromethyl)pyridin-4-yl)-5,6,7,8-tetrahydropyrido[3,4-d]pyrimidin-4-yl)piperazin-2-yl)acetonitrile]
7 | > 1000 | C=CC(=O)N1CCN(c2nc(OC[C@@H]3CCCN3C)nc3c2CCN(c2ccccc2CC(F)(F)F)C3)CC1CC#N (stereo partly drawn) [Example 240, 2-(1-acryloyl-4-(2-(((S)-1-methylpyrrolidin-2-yl)methoxy)-7-(2-(2,2,2-trifluoroethyl)phenyl)-5,6,7,8-tetrahydropyrido[3,4-d]pyrimidin-4-yl)piperazin-2-yl)acetonitrile]
8 | > 1000 | C=CC(=O)N1CCN(c2nc(OC[C@@H]3CCCN3C)nc3c2CCN(c2ncccc2C(F)(F)F)C3)CC1CC#N (some centres unmarked) [Example 241]
9 | 0.1 to 1000 | C=CC(=O)N1CCN(c2nc(OC[C@H]3CCCN3C)nc3c2CCN(c2c(C(F)(F)F)ccc4[nH]ncc24)C3)CC1CC#N (stereo partly drawn) [Example 243, 2-[4-[2-[[(2R)-1-methylpyrrolidin-2-yl]methoxy]-7-[5-(trifluoromethyl)-1H-indazol-4-yl]-6,8-dihydro-5H-pyrido[3,4-d]pyrimidin-4-yl]-1-prop-2-enoyl-piperazin-2-yl]acetonitrile]
10 | 0.1 to 1000 | C=CC(=O)N1CCN(c2nc(OC[C@@H]3CCCN3C)nc3c2CCN(c2ccc(F)c4ccccc24)C3)CC1CC#N (stereo partly drawn) [Example 246, 2-[4-[7-(4-fluoro-1-naphthyl)-2-[[(2S)-1-methylpyrrolidin-2-yl]methoxy]-6,8-dihydro-5H-pyrido[3,4-d]pyrimidin-4-yl]-1-prop-2-enoyl-piperazin-2-yl] acetonitrile]
11 | > 1000 | C=CC(=O)N1CCN(c2nc(OC[C@@H]3CCCN3C)nc3c2CCN(c2cccc4cccnc24)C3)CC1CC#N (stereo partly drawn) [Example 247, 2-(1-acryloyl-4-(2-(((S)-1-methylpyrrolidin-2-yl)methoxy)-7-(quinolin-8-yl)-5,6,7,8-tetrahydropyrido[3,4-d]pyrimidin-4-yl)piperazin-2-yl)acetonitrile]
12 | > 1000 | C=CC(=O)N1CCN(c2nc(OC[C@@H]3CCCN3C)nc3c2CCN(c2c(Cl)ccc4[nH]ncc24)C3)CC1 [Example 250, 1-[4-[7-(5-chloro-1H-indazol-4-yl)-2-[[(2S)-1-methylpyrrolidin-2-yl]methoxy]-6,8-dihydro-5H-pyrido[3,4-d]pyrimidin-4-yl]piperazin-1-yl]prop-2-en-1-one]
13 | 0.1 to 1000 | C=CC(=O)N1CCN(c2nc(OC[C@@H]3CCCN3C)nc3c2CCN(c2cccc4ccc(Cl)cc24)C3)CC1CC#N (stereo partly drawn) [Example 253, 2-(1-acryloyl-4-(7-(7-chloronaphthalen-1-yl)-2-(((S)-1-methylpyrrolidin-2-yl)methoxy)-5,6,7,8-tetrahydropyrido[3,4-d]pyrimidin-4-yl)piperazin-2-yl)acetonitrile]
14 | 0.1 to 1000 | C=CC(=O)N1CCN(c2nc(OC[C@@H]3CCCN3C)nc3c2CCN(c2cccc4c(F)cccc24)C3)CC1CC#N (stereo partly drawn) [Example 254, 2-[4-[7-(5-fluoro-1-naphthyl)-2-[[(2S)-1-methylpyrrolidin-2-yl]methoxy]-6,8-dihydro-5H-pyrido[3,4-d]pyrimidin-4-yl]-1-prop-2-enoyl-piperazin-2-yl]acetonitrile]
15 | > 1000 | C=CC(=O)N1CCN(c2nc(OC[C@@H]3CCCN3C)nc3c2CCN(c2cccc4ccc(OC)cc24)C3)CC1CC#N (stereo partly drawn) [Example 255, 2-[4-[7-(7-methoxy-1-naphthyl)-2-[[(2S)-1-methylpyrrolidin-2-yl]methoxy]-6,8-dihydro-5H-pyrido[3,4-d]pyrimidin-4-yl]-1-prop-2-enoyl-piperazin-2-yl]acetonitrile]
16 | > 1000 | C=CC(=O)N1CCN(c2nc(OC[C@@H]3CCCN3C)nc3c2CCN(c2cccc4ccccc24)C3)CC1COC (stereo partly drawn) [Example 256, 1-(2-(methoxymethyl)-4-(2-(((S)-1-methylpyrrolidin-2-yl)methoxy)-7-(naphthalen-1-yl)-5,6,7,8-tetrahydropyrido[3,4-d]pyrimidin-4-yl)piperazin-1-yl)prop-2-en-1-one]
17 | > 1000 | C=CC(=O)N1CCN(c2nc(OC[C@@H]3CCCN3C)nc3c2CCN(c2nccc4ccccc24)C3)CC1CC#N (stereo partly drawn) [Example 258, 2-[4-[7-(1-isoquinolyl)-2-[[(2S)-1-methylpyrrolidin-2-yl]methoxy]-6,8-dihydro-5H-pyrido[3,4-d]pyrimidin-4-yl]-1-prop-2-enoyl-piperazin-2-yl]acetonitrile]
18 | 0.1 to 1000 | C=CC(=O)N1CCN(c2nc(OC[C@@H]3CCCN3C)nc3c2CCN(c2cccc4cc(F)ccc24)C3)CC1CC#N (stereo partly drawn) [Example 259, 2-[4-[7-(6-fluoro-1-naphthyl)-2-[[(2S)-1-methylpyrrolidin-2-yl]methoxy]-6,8-dihydro-5H-pyrido[3,4-d]pyrimidin-4-yl]-1-prop-2-enoyl-piperazin-2-yl]acetonitrile]
19 | 0.1 to 1000 | C=CC(=O)N1CCN(c2nc(OC[C@@H]3CCCN3C)nc3c2CCN(c2cncc4ccccc24)C3)CC1CC#N (stereo partly drawn) [Example 260, 2-[4-[7-(4-isoquinolyl)-2-[[(2S)-1-methylpyrrolidin-2-yl]methoxy]-6,8-dihydro-5H-pyrido[3,4-d]pyrimidin-4-yl]-1-prop-2-enoyl-piperazin-2-yl]acetonitrile]
20 | > 1000 | C=C(C)C(=O)N1CCN(c2nc(OC[C@@H]3CCCN3C)nc3c2CCN(c2cccc4ccccc24)C3)CC1CC#N (stereo partly drawn) [Example 261, 2-[1-(2-methylprop-2-enoyl)-4-[2-[[(2S)-1-methylpyrrolidin-2-yl]methoxy]-7-(1-naphthyl)-6,8-dihydro-5H-pyrido[3,4-d]pyrimidin-4-yl]piperazin-2-yl]acetonitrile]
